Where a SMILES comes first, the peptide text is derived from it.
Key:
HeLa cells = assay: CellTiter-Glo2.0 cell viability assay; assay type: cell-based; conditions: for viable cells (lowest): concentrations of 16.10 µM or higher
Protocol: Supplementary Figure 5. Characterisation of cytotoxicity effects of CP-eIFTerminators and […]
A. Measurement of cell viability (%) in HeLa cells following 3-hr treatments with cell-penetrating peptides. A Cell Titer-Glo2.0 cell viability assay was performed to assess viability of HeLa cells following a 3-hr treatment with a dilution series of each CP-eIFTerminator or parental warhead (CP-CBLock or CP-eIF4G1-D5S). The concentration range of each peptide in the 13-point serial dilution was 0.16-24.4 μM.
Data on CP-eIFTerminator2 are not shown as it was insoluble (n = 3, mean ± Standard error of the mean (SEM)).
B. Measurement of cell viability (%) in HeLa cells following 8 hr treatments with cell- […]
viability of HeLa cells following an 8-hr treatment with a dilution series of each CP-eIFTerminator, CP-CBLock, or CP-eIF4G1-D5S. The concentration range of each peptide in the 13-point serial dilution was 0.16-24.4 μM. CP-eIFTerminator2 was not
(1 picture or pasted object on this page, not shown here)
MgCl2. After the liquid was removed, 30 μL 2x LDS mix (prepared as described above) was used to elute the IP samples. The samples were boiled at 92°C for 10 min and 28 μL were loaded on a 4-12% Bis-Tris SDS-PAGE gel, along with the whole cell lysates that were prepared in 75 μL RIPA buffer. The gel was subsequently transferred and western blotted.
Antibodies included anti-actin, anti-HA, anti-K48 antibodies as primaries, as well as IRDye800CW goat anti-mouse IgG secondary antibody and IRDye680LT goat anti-rabbit […]
CellTiter-Glo2.0 Cell Viability Assay
Cells were seeded onto a Greiner 384 small volume plate using a Multidrop TM Combi Reagent Dispenser (Thermo Scientific). The seeding density was 2000 cells/well in a volume of 15 μL per well. After incubating the 384-well plate overnight at 37°C, 5% CO 2, the medium on the plate was removed using a Bluewasher (Blue Cat Bio). […] The plate was read using a PHERAstar FSX (BMG Labtech). Raw data were exported from the Pherastar as a Microsoft Excel file and analysed in Excel, and the processed data were plotted in GraphPad Prism v9.5.1. […]

eIF4E = target: T1, eIF4E (Homo sapiens, UniProt P06730); assay: Western blot of endogenous eIF4E (and eIF4A, eIF4G, FITC) in HeLa cells; assay type: cell-based; conditions: 3 h, result in words; for eIF4E degradation, PROTAC versus individual warheads: 10 µM
T1 construct: assessed the effects on the endogenous levels of eIF4E; endogenous in cells; host or cells: HeLa
T1 sequence (P06730 whole entry): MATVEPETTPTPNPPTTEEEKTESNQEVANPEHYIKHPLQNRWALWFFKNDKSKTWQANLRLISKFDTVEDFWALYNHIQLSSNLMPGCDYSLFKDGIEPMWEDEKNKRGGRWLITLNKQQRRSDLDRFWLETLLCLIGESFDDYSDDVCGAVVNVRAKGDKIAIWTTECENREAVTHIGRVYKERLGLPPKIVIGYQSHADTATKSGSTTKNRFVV
Protocol: Western blot procedures for cell-based assays
Three washes with 1 mL PBS were performed before harvesting cells with a cell lifter. The cells were frozen in liquid nitrogen and stored at -70°C. The lysis buffer comprised 50 mM Tris-HCl (pH 7.5), 150 mM NaCl, 1% Triton-X, 1% SDS, 1 μL benzonase and one tablet of the Pierce TM Protease Inhibitor Tablets, EDTA-free (ThermoFisher Sceintific) in PBS except for HA-tag and Myc-tag IP. As for HA-tag and Myc-tag IP, the lysis buffer consisted of 50 mM Tris-HCl (pH 7.5), 150 mM NaCl, 1 mM EDTA, 1% IGEPAL CA-630, 10% glycerol, 20 μM PMSF, 1 mM DTT, and a single Protease Inhibitor Tablet in PBS.
The cells were lysed in 35 μL lysis buffer at 4°C by vortexing every 10 min over a period of 90 min. Protein concentration in the cell lysate was measured by Bradford assay.
Lysates were immunoprecipitated in addition to inputs when appropriate. SDS-PAGE and immunoblotting analysis were performed subsequently. […]
CellTiter-Glo2.0 Cell Viability Assay […]
A 13-point serial dilution series of 0.163 μM –
24.4 μM of each peptide dissolved in DMSO was dispensed with the highest concentration of DMSO at less than 0.5%. Three replicates were run per condition. The assay plate was incubated for 3 hr or 8 hr at 37°C, 5% CO 2. Following this, the liquid on the assay plate was removed using the Bluewasher. […]
Comparison of CP-eIFTerminator peptides and warheads in HeLa cells
HeLa cells were seeded in 6 cm dishes at a cell density of 1.5 x10^6 per dish. After overnight incubation at 37°C, 5% CO 2, cells were treated with […] along with 10 μM of respective cell-penetrating peptides. Peptides were reconstituted in water immediately before addition to the cell culture. An equal volume of water was added as a negative control.
Cells were harvested 3 hr after peptide incubation at 37°C, 5% CO 2 for western blot analysis.
Anti-actin, anti-eIF4EA, anti-eIF4E, anti-eIF4G, and anti-FITC antibodies, as well as […]
secondary IgG in Table 3 were used for Western blot.
Time course of CP-eIFTerminator4 in HeLa cells
0.5 x 10^6 HeLa cells were seeded in 35 mm dishes. A time course experiment was initiated after overnight incubation at 37°C, 5% CO 2. For each time point (0.5, 3, 6, 12, 24 hr), cells were treated with fresh medium containing 100 ng/mL EGF along with 20 μM CP-eIFTerminator4 or water. All dishes were harvested at the same time, after varying incubations with the peptide.
Titration of CP-eIFTerminator4 in HeLa and U-2 OS cells […]
Immediately after this, 2.5 μM, 10 μM, or 50 μM CP-eIFTerminator4 was added to U-2 OS cells. 5 μM, 10 μM, or 20 μM CP-eIFTerminator4 was added in the case of HeLa cells. […]
15022) or 50 μM chloroquine (Cell Signaling Technology, Cat. No.: 14774S) and incubated for 4 hr at 37 °C, 5% CO 2. […] The cell lysates were analysed by western blot. […]

His-eIF4E = target: T2, His-eIF4E (UniProt P06730 1-217); assay: SPR; His-eIF4E immobilised; dilution series of eIFTerminator with a fixed, saturating concentration of CBL (1 µM) as analyte; steady-state affinities, ternary complex; conditions: both partners purified
T2 construct: eukaryotic translation initiation factor 4E (eIF4E); Immobilised on the SPR chip; also called eukaryotic translation initiation factor 4E; source: recombinant
T2 sequence (P06730 whole entry): as above

Row | Kd (His-eIF4E) [nM] | Molecule | viable cells (lowest) (HeLa cells; 3 h post-peptide treatment) [%] | viable cells (lowest) (HeLa cells; 8 h post-peptide treatment) [%] | concentration at which cytotoxicity was exhibited (HeLa cells; CellTiter-Glo2.0, 0.16–24.4 µM, 3 h and 8 h, 100 ng/mL EGF, n = 3) [µM] | eIF4E degradation, PROTAC versus individual warheads (eIF4E) | effect on eIF4A1, eIF4E and eIF4G1 levels (eIF4E)
1 | – | CC[C@H](C)[C@H](NC(=O)[C@H](CCCCN)NC(=O)[C@@H](NC(=O)[C@H](CCC(N)=O)NC(=O)[C@@H](N)CCCNC(=N)N)[C@@H](C)CC)C(=O)N[C@@H](Cc1c[nH]c2ccccc12)C(=O)N[C@@H](Cc1ccccc1)C(=O)N[C@@H](CCC(N)=O)C(=O)N[C@@H](CC(N)=O)C(=O)N[C@@H](CCCNC(=N)N)C(=O)N[C@@H](CCCNC(=N)N)C(=O)N[C@@H](CCSC)C(=O)N[C@@H](CCCCN)C(=O)N[C@@H](Cc1c[nH]c2ccccc12)C(=O)N[C@@H](CCCCN)C(=O)N[C@@H](CCCCN)C(=O)NCC(=O)NCC(=O)N[C@@H](CO)C(=O)N[C@@H](CCCCN)C(=O)N[C@@H](CCCCN)C(=O)N[C@@H](CCCNC(=N)N)C(=O)N[C@@H](Cc1ccc(O)cc1)C(=O)N[C@@H](CO)C(=O)N[C@@H](CCCNC(=N)N)C(=O)N[C@@H](CCC(=O)O)C(=O)N[C@@H](Cc1ccccc1)C(=O)N[C@@H](CC(C)C)C(=O)N[C@@H](CC(C)C)C(=O)NCC(=O)N[C@@H](Cc1ccccc1)C(N)=O [CP-eIF4G1-D5S] (H-RQIKIWFQNRRMKWKKGGSKKRYSREFLLGF-NH2; N-terminus assumed) | ≥ 35 | ≥ 25 | ≥ 16.10 | do not trigger eIF4E degradation | minimal effects
2 | – | N'-RQIKIWFQNRRMKWKKGGSMTVEEMDSWIKSWDQR-C' [CP-CBLock] | – | – | – | do not trigger eIF4E degradation | minimal effects
3 | 43.8 | eIFTerminator4-CBL binary complex (complex) chain 1: MTVEEMDSWIKSWDQMGGSGGSGGSGKKRYSREFLLGF chain 2: PPGTVDKKMVEKCWKLMDKVVRLCQNPKLALKNSPPYILDLLPDTYQHLRTILSRYEGKMETLGENEYFRVFMENLMKKTKQTISLFKEGKERMYEENSQPRRNLTKLSLIFSHMLAELKGIFPSGLFQGDTFRITKADAAEFWRKAFGEKTIVPWKSFRQALHEVHPISSGLEAMALKSTIDLTCNDYISVFEFDIFTRLFQPWSSLLRNWNSLAVTHPGYMAFLTYDEVKARLQKFIHKPGSYIFRLSCTRLGQWAIGYVTADGNILQTIPHNKPLFQALIDGFREGFYLFPDGRNQNPDLTGLCEPTPQDHIKVTQEQYELYCEMGSTFQLCKICAENDKDVKIEPCGHLMCTSCLTSWQESEGQGCPFCRCEIKGTEPIVVDPFD | – | – | – | – | –

From publication PMC12774438, “CBL ubiquitin ligase targets translation as a degrader E3” (Chemical Science, 2025)
